The results in this text go back to patent publication US8710045B2, “Agents for preventing and treating disorders involving modulation of the ryanodine receptors” (The Trustees of Columbia University in the City of New York, priority 2004, dated 2014).

This assay has as its target T1, PKA-phosphorylated RyR2 (Homo sapiens, UniProt Q92736).
T1 construct: from tissue
Description: FKBP12.6 rebinding assay: FKBP12.6 binding to PKA-phosphorylated RyR2 in cardiac SR.

Structures are written as SMILES.

T1 sequence (Q92736 whole entry): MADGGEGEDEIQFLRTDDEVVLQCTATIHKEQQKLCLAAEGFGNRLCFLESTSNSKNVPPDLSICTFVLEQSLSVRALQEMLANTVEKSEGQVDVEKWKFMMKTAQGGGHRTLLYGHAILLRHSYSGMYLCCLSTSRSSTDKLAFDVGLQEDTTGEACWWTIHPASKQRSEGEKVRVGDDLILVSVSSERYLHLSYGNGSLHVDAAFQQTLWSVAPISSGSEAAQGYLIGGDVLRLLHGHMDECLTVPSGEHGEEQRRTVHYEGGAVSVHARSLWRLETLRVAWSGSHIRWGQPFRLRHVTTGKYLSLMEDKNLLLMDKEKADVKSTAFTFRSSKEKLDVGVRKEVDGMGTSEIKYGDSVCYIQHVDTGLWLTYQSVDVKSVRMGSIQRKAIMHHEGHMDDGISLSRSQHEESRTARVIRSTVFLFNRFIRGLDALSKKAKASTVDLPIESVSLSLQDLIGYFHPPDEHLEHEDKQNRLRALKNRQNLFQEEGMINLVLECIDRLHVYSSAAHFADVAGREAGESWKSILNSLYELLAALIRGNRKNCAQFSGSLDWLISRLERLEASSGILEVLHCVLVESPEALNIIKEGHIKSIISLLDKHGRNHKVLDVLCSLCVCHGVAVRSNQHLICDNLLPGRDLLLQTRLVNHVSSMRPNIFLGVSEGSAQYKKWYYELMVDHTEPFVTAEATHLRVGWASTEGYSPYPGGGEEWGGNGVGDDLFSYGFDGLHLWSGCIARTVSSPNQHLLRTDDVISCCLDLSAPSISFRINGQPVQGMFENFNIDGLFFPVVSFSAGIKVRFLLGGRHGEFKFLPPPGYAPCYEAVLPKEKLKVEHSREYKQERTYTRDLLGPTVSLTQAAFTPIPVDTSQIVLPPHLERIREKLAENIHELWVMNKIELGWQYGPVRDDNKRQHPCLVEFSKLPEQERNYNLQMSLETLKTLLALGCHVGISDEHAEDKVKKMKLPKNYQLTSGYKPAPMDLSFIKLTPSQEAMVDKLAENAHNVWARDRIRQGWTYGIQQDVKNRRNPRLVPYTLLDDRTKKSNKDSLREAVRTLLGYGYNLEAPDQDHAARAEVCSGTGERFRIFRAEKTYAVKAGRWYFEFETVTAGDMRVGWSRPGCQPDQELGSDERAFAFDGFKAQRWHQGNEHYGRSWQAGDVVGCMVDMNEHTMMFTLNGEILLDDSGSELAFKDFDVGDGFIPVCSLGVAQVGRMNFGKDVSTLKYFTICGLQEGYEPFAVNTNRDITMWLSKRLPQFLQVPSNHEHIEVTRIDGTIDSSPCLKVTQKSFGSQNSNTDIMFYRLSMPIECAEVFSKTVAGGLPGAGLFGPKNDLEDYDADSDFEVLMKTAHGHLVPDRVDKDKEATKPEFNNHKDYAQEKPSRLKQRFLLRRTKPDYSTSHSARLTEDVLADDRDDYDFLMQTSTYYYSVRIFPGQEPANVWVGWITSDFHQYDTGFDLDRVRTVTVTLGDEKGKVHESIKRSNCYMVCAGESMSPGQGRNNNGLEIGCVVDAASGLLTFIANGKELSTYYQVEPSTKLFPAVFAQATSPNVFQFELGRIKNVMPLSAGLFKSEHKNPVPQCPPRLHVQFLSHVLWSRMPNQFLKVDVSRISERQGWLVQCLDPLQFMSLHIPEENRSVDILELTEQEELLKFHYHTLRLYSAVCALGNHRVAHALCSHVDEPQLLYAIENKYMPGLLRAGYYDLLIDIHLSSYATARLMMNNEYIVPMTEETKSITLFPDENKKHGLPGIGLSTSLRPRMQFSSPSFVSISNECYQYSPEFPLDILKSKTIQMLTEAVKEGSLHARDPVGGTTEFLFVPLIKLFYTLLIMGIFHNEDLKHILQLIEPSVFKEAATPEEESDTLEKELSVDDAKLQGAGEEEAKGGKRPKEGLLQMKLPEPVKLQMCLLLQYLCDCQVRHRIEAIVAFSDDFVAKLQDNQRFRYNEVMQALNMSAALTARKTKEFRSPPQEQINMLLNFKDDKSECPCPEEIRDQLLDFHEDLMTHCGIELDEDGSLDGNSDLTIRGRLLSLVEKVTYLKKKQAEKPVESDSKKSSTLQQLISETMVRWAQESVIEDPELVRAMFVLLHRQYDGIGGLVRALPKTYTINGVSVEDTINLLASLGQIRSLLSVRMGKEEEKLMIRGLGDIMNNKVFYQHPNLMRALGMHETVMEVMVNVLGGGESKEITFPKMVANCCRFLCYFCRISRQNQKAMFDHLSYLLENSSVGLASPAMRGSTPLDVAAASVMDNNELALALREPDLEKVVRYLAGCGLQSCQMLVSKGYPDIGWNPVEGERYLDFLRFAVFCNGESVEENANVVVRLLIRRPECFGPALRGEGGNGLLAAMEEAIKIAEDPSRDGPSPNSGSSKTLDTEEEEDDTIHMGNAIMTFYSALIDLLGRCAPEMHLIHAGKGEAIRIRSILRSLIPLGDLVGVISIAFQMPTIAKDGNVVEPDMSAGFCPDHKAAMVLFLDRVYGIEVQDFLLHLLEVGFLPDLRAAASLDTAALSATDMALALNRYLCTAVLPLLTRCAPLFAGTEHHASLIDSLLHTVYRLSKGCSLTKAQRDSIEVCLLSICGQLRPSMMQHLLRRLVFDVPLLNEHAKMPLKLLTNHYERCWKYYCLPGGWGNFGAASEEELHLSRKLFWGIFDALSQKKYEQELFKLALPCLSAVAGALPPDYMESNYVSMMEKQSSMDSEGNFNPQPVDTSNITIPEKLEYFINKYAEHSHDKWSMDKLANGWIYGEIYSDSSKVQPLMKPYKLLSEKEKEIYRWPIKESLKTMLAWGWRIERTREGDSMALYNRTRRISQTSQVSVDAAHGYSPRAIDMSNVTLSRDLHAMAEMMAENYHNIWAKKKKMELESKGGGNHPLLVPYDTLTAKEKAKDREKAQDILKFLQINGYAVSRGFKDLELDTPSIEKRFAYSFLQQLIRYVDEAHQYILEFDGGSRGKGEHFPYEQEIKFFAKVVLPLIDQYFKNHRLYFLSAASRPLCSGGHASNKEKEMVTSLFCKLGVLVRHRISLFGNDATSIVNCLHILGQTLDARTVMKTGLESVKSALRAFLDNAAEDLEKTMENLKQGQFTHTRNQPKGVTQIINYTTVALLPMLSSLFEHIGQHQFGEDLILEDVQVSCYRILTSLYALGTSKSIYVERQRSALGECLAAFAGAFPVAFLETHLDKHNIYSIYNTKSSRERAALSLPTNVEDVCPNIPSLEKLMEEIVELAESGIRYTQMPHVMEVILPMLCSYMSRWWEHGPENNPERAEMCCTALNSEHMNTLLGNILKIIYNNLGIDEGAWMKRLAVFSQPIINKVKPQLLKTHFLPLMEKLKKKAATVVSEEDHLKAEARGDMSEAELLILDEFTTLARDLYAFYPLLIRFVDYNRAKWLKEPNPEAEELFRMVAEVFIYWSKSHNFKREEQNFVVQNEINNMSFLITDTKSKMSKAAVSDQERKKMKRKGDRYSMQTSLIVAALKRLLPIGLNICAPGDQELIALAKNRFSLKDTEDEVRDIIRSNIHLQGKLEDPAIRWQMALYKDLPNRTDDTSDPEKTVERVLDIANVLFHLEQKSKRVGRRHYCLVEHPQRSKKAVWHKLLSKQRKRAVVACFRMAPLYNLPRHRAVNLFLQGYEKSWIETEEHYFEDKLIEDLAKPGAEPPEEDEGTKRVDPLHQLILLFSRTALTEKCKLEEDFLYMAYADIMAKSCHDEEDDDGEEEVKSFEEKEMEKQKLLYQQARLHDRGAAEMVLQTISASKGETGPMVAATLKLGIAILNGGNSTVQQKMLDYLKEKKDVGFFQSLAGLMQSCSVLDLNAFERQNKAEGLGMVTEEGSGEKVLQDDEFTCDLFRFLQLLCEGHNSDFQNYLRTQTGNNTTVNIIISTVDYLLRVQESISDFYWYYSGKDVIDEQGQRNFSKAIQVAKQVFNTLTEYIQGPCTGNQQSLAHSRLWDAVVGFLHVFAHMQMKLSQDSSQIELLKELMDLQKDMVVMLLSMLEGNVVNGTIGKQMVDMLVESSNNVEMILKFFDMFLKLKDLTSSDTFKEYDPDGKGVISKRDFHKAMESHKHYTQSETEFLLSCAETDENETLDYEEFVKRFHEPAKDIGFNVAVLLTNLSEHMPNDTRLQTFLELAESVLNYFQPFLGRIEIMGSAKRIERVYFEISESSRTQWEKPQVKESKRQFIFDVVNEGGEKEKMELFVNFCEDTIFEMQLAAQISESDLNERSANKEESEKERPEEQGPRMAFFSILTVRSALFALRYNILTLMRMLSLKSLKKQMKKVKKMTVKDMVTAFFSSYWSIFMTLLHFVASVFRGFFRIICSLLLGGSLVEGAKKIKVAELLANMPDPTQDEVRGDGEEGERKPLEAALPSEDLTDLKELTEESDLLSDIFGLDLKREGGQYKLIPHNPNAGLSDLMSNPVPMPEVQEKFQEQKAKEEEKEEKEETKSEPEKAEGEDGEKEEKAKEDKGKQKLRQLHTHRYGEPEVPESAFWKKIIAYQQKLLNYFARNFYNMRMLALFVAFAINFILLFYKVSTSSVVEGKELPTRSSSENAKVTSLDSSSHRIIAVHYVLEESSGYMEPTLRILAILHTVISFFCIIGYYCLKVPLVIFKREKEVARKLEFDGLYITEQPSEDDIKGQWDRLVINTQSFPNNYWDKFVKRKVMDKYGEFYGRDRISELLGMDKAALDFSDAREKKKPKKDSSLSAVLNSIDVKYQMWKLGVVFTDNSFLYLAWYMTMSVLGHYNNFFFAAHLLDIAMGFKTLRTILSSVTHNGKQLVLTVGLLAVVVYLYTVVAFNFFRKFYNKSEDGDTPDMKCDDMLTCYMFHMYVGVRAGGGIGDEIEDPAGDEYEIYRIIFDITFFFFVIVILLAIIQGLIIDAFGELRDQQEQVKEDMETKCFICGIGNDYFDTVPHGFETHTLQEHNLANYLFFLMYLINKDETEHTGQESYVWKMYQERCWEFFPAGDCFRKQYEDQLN
T1 sequence (P68106 whole entry partner): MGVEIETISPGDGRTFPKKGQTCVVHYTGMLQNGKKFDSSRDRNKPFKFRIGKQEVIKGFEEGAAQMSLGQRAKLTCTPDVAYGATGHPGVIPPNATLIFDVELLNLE

As to `COc1ccc2c(c1)CN(C(=O)C(=O)O)CCS2` [S36], the “potency at increasing the binding of FKBP12.6 and RyR2 compared with JTV-519” value is “more potent”. Also, it took 15 nM to reach a half-maximal effect (compound 0.5-1000 nM, Michaelis-Menten curve fitting) (EC50).

A word on the EC50: it is the concentration giving half of the maximal effect. A low value points to a more potent agent.
